Measured values published in patent publication US6420563B1, “Small molecule modulators of G protein-coupled receptor six” (Arena Pharmaceuticals, Inc., priority 1998, dated 2002).
Values joined by “and” are separate entries in the source; they are usually repeats but may differ in a detail not shown here. Equal entries are not always repeated. Where two headings read alike, the source gives them in different places.

Legend:
[1] = Basal food/water intake and body weight in non-food deprived rats, IP administration; type: in vivo, rat; conditions: for food consumed over a period of 4 hrs: dark cycle, vehicle 9 g
Method: In this test, animals were not deprived of food but were instead observed for normal activity.
Animals were administered ARE112 at 0, 6.75, 13.5, 27 and 54 mg/kg, IP 30 min prior to the beginning of their dark cycle (i.e. 6:30 pm) and were then exposed to standard rat chow pellets (i.e. 30 min after compound administration) and observed for a period of 15.5 hr post administration. […] For example, the vehicle treated animals consumed 9 g of food over a period of 4 hrs, whereas animals treated with dose of 13.5 mg/kg and 54 mg/kg consumed less than half this amount over this same period (4 and 2 g of food, respectively). […] (See, FIGS. 6B and 6C).

[2] = Food/water intake and body weight in 24-hour food-deprived rats, IP administration; type: in vivo, rat; conditions: for body weight gain: vehicle 20 g
Method: An in vivo assessment of GPR6 inverse agonist was accomplished by determining the effects of ARE112 on food intake after food deprivation in rats. Food deprivation was used to induce higher than normal eating behavior (e.g., controlvehicle-treated animals were hyperphagic).
The animals (male Sprague-Dawley rats were used for the following experiments) were food deprived for 24 hr, and then injected intraperitoneally (IP) with 0, 6.75, 13.5, 27 and 54 mg/kg of compound ARE112. After 30 min, rats were introduced to standard rat chow pellets and observed thereafter for a period of 6.5 hours post-injection.

[3] = Intracerebroventricular (ICV) administration on 24-hour food-deprived rats; type: in vivo, rat; conditions: for water drunk: comparable to vehicle
Method: Animals were prepared with an ICV cannula aimed above the lateral ventricle. For this surgery, animals were placed under general anesthesia using continuous inhalation of isoflurane and secured in a Kopf stereotaxic instrument. Surgery was performed in a dedicated surgery room, using sterile instruments, surgical gloves and aseptic procedures to prevent clinical infections. The surgical site was shaved and disinfected with betadine solution and alcohol. Animals were observed continuously for the level of anesthesia by testing for the animals' responses to tail- or paw-pinch. A cannula made of 23 gauge stainless steel tubing (7 mm long) was lowered to a point 1 mm above the ventricle, using coordinates: A/P−0.6 mm from bregma, M/L+/−2.0 mm from bregma, D/V 3.2 mm below skull surface. The guide was anchored to the skull with three stainless steel screws and dental cement. Coordinates were based on stereotaxic atlas such as Paxinos and Watson sterotaxic atlas (Paxinos, G. and Watson, C, The Rat Brain, New York, Academic Press, 1982). After cannula implantation, a 30-gauge stainless steel dummy stylet was inserted into the cannula. At the conclusion of surgery, a heat source (heat lamp directed towards one half of recovery cage) was used to maintain body temperature while the animals recovered from anesthesia. Animals were allowed at least one week of recovery after surgery before ICV injection of compound was performed.
Animals were food-deprived for 24 hours prior to administration of the compound.
For ICV injection, the dummy stylet was removed from the implanted cannula, and a 30-gauge stainless steel injector cannula containing ARE112 suspension in a 45% cyclodextrin solution was inserted to a depth 1.5 mm beyond the ventral tip of the implanted cannula. The other (noninserted) end of the injector cannula was attached to 60 cm of PE10 tubing containing the compound suspension, which was attached at the free end of tubing to a 25 μl Hamilton syringe. Ten microliters of ARE112 suspension (containing, 0, 25, 50, and 100 nmol) were then delivered via gentle and even mechanical pressure to the plunger of the Hamilton syringe. The volume of injection was verified by marks on the PE 10 tubing previously calibrated with a 10 μl Hamilton syringe. At the conclusion of injection, any fluid observed from the dorsal tip of the implanted cannula upon withdrawal of the injector cannula was noted, and the dummy stylet was inserted into the implanted cannula.

[4] = Food intake in non-food deprived rats, oral gavage; type: in vivo, rat
Method: In a second assay, rats were treated with ARE112 by oral gavage but were not food deprived. Data evidence an even greater decrease in food intake, such that at 18 hours post administration of the compound, the vehicle rats had consumed about 15 grams of food while the injected rats (at all doses) ate 5 grams or less; about a three fold decrease in food consumption when treated with compound ARE112. (See, FIG. 9B).

GPR6 = target: T1, GPR6 (Homo sapiens, UniProt P46095); assay: membrane-based cyclic AMP confirmation assay (Example 4C); type: biochemical
T1 construct: expressed in transfected cells; 293 cells are used elsewhere
Procedure, shortened: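 Membranes from stably transfected cells (0.60 mg/ml protein, 30 μg/well) in 20 mM HEPES pH 7.4, 100 mM NaCl, 10 mM MgCl2 were incubated 30 min at room temperature with compound at 12 μM final. cAMP then measured by Flash Plate adenylyl cyclase detection after 2-20 h, scintillation counting.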

T1 sequence (P46095 whole entry): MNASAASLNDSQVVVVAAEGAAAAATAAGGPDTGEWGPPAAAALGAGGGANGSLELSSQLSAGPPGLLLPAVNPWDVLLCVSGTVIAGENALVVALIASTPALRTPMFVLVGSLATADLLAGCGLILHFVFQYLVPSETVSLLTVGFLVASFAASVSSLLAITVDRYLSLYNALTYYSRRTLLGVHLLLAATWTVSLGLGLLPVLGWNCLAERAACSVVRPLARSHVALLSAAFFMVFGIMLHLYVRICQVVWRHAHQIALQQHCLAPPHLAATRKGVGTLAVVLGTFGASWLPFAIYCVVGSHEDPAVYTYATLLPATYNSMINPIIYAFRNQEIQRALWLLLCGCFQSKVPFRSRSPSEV

- IC50 (GPR6; assay number 1-3 for compound ARE112, read-out: IC50 Values (nM) cAMP): 88.3 nM and 77.4 nM and 99 nM
- IC50 (GPR6; mean +/- standard deviation (number of assays in brackets), read-out: IC50 Values Cyclic AMP Assay Example 4C): 100 nM
SMILES: O=C(N=C1SSC2=NCCN21)c1cccs1 [ARE112, N-(5,6-dihydro-3H-imidazo[2,1-c]-1,2,4-dithiazol-3-ylidene)-thiophen-2-carboxamide]
- food consumed over a period of 4 hrs ([1]; 13.5 mg/kg IP): 4 g
- food consumed over a period of 4 hrs ([1]; 54 mg/kg IP): 2 g
- body weight gain ([1]; IP, non-deprived rats): decrease
- water intake ([1]; IP, non-deprived rats): decrease
- body weight gain ([2]; 13.5 mg/kg IP): 11 g
- body weight gain ([2]; 27 mg/kg IP): no weight gain
- decrease in water intake ([2]; 54 mg/kg IP): 5 fold
- food consumed (cumulative food intake) ([2]; 54 mg/kg IP, 1.5 hours after injection, vehicle about 6 grams): 3 g
- food consumed (cumulative food intake) ([2]; 54 mg/kg IP, 6.5 hours post-injection, vehicle up to 14 g): 4 g
- body weight gain ([2]; 54 mg/kg IP): no weight gain
- water drunk ([3]; 25 nmol ICV): about 17 grams
- water drunk ([3]; 50 nmol ICV): about 17 grams
- water consumed ([3]; 100 nmol ICV, relative to about 17 grams): less than half that amount
- weight gained ([3]; 100 nmol ICV, vehicle about 12 grams): 5 grams
- food consumed ([3]; after three hours, ICV, vehicle about 2.5 grams): ≤ 1.0 grams
- less food consumed than vehicle ([3]; two hours post-administration, all doses (25, 50, 100 nmol ICV)): about 6 fold
- oral activity ([4]; 6.75 to 54 mg/kg): orally active
- decrease in food consumption ([4]; 18 hours post administration): three
- food consumed ([4]; all doses, 18 hours post administration, vehicle about 15 grams): ≤ 5 grams
